Experimental data reported in article PMC11054528, “Evaluation of Physicochemical Properties of Ipsapirone Derivatives Based on Chromatographic and Chemometric Approaches” (Molecules, 2024).

Key:
[1] = target: human serum albumin (HSA) (Homo sapiens, UniProt P02768); experiment: HSA-HPLC, biomimetic chromatography on Chiralpak HSA column; format: in vitro ADME; parameters: purchased Daicel Chiral Technologies, West Chester, PA, USA; details: for LogKHSA: pH 7.4; for %HSA: pH 7.4, recalculated from logKHSA
Description: Utilizing columns modified by plasma proteins, such as human serum albumin (HSA), allows for estimating binding to plasma protein (PPB). Generally, PPB affects drug pharmacokinetics, including distribution, half-life, and clearance. While lipophilicity is a well-known factor in determining PPB, it should also be considered in early drug discovery. In general, more lipophilic compounds tend to have higher percentages of PP due to nonspecific interactions with proteins. However, hydrophilic compounds can also bind strongly to PP through […] and electrostatic interactions by binding in protein pockets.
For HSA-HPLC experiments, the column was Chiralpak® HSA (100 × 4 mm; 5 µm with safety guard column; Daicel Chiral Technologies, West Chester, PA, USA). The column temperature was set to 30 °C. The same phase A as in the IAM-HPLC case was used, and the mobile phase B was isopropanol (i-PrOH). The linear gradient from 0 to 20% i-PrOH was applied from 0 to 15 min, held at 20% i-PrOH for 12 min, and then returned to pure ammonium acetate solution. The mobile phase flow rate was 0.9 mL/min throughout the experiment. Three minutes of column recalibration was applied between each run. The retention times were collected at wavelengths between 190 and 300 nm, and the injection volume was 10 μL.

[2] = Fast gradient RP-HPLC on C18 column (CHI lipophilicity); format: physicochemical; details: for CHIC18 pH = 2.6 / CHIC18 pH = 7.4 / CHIC18 pH = 10.6: C18 column; for CHI LogP: from chromatographically determined CHI on nonionized forms (pH 10.6), CHI LogP = 0.054 × CHI − 1.467
Description: Considering the significant differences in the calculations obtained, the next step of our investigation considered the determination of lipophilicity using a chromatographic approach. Among the available protocols, the fast gradient approach developed by Valko was chosen because it enables the assessment of lipophilicity from a single chromatographic measurement. In addition, this approach enables the determination of the acid/basic properties of molecules through the addition of experiments under different pH conditions.
Therefore, the CHI under pH10.6 can be considered and converted to chromatographically determined LogP, called CHI LogP. A cluster analysis (CA) was performed to compare chromatographically determined and calculated lipophilicity. A CA can be used for the visualization of similarities and differences between studied objects, in this case, lipophilic parameters. The obtained results clearly indicate that significant differences between theoretical and experimental data occurred, and they formed two separate groups (Figure 1). The differences are also visible on the calculated correlation matrix (Figure 2).
For RP-HPLC experiments, a C18 Hypersil GOLD^TM (50 mm × 4.6 mm; 5.0 µm with a guard column; Thermo Scientific, Waltham, MA, USA) column was applied. The column temperature was set to 40 °C. Three water solutions were used as mobile phase A: acetic acid at pH 2.6, […] at pH 7.4, and 50 mM ammonium acetate at pH 10.5. Mobile phase B was acetonitrile (ACN). The linear gradient from 2 to 98% ACN was applied from 0 to 5.25 min and held at 98% ACN for 1.75. The mobile phase flow rate was 1.5 mL/min throughout the experiment.

[3] = IAM-HPLC, immobilized artificial membrane chromatography (affinity to phospholipids); format: physicochemical; parameters: scale not given here; details: IAM.PC.DD2 column, pH 7.4
Description: In considering that lipophilicity is a known factor influencing passive diffusion across the BBB, this is an important observation. The affinity to phospholipids can also be determined using one-gradient protocols and the IAM column. CHIIAM can be used as a cut-off point to indicate the potential for promiscuous binding and interference with phospholipids.
The immobilized artificial membrane column (IAM.PC.DD2, 10 × 4.6 mm × 10.0 µm with a guard column (Regis Technologies; Morton Grove, IL, USA) was used for IAM-HPLC experiments. The column temperature was set to 30 °C. Similar to RP-HPLC, mobile phase A was a 50 mM ammonium acetate at pH 7.4, and mobile phase B was acetonitrile. The linear gradient from […] ACN was applied from 0 to 5.25 min and held at 98% ACN for 0.5 min at a constant flow rate of 1.5 mL/min.

Sequence of human serum albumin (HSA) (P02768 25-609): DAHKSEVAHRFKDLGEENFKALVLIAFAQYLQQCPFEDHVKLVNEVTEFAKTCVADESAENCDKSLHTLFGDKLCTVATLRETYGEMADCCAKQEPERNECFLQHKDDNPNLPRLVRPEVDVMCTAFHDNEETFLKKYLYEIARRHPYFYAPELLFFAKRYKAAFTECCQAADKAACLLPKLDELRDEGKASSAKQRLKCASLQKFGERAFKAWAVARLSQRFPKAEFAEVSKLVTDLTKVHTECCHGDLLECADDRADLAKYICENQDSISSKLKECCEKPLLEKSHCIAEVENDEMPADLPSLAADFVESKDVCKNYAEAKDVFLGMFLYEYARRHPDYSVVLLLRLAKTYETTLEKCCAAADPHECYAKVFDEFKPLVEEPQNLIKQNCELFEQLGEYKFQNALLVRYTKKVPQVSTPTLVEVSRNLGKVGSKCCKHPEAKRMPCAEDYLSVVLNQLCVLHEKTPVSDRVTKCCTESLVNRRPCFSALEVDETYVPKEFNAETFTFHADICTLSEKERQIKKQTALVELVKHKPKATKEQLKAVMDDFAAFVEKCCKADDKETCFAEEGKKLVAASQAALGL

SMILES | LogKHSA [1] | %HSA [1] [%] | CHIC18 pH = 2.6 [2] | CHIC18 pH = 7.4 [2] | CHIC18 pH = 10.6 [2] | CHI LogP [2] | CHIIAM [3] | affinity to HSA compared with reference diclofenac [1] | affinity to HSA, in words [1]
COc1ccccc1N1CCN(CCCCN2C(=O)c3ccccc3S2(=O)=O)CC1 [molecule 2] | 1.72 | 99.13 | 60.08 | 110.90 | 109.41 | 4.44 | 46.90 |  | 
O=C1c2ccccc2S(=O)(=O)N1CCCCN1CCN(c2cccc(Cl)c2Cl)CC1 [molecule 3] | 0.52 | 77.60 | 49.19 | 78.80 | 87.69 | 3.27 | 35.71 |  | 
O=C1c2ccccc2S(=O)(=O)N1CCCCN1CCN(c2ccc(Cl)cc2)CC1 [molecule 4] | 1.32 | 96.38 | 56.31 | 100.82 | 100.70 | 3.97 | 42.61 |  | 
O=C1c2ccccc2S(=O)(=O)N1CCCCCN1CCN(c2ccccc2)CC1 [molecule 5] | 0.84 | 88.23 | 52.20 | 89.50 | 95.60 | 3.70 | 39.09 |  | 
COc1ccccc1N1CCN(CCCCCN2C(=O)c3ccccc3S2(=O)=O)CC1 [molecule 6] | 0.68 | 83.59 | 52.94 | 79.45 | 91.77 | 3.49 | 38.03 |  | 
O=C1c2ccccc2S(=O)(=O)N1CCCCCN1CCN(c2cccc(Cl)c2Cl)CC1 [molecule 7] | 1.77 | 99.31 | 72.79 | 112.26 | 112.92 | 4.63 | 48.28 |  | 
O=C1c2ccccc2S(=O)(=O)N1CCCCCN1CCN(c2ccc(Cl)cc2)CC1 [molecule 8] | 1.53 | 98.11 | 97.99 | 101.36 | 100.81 | 3.98 | 44.30 |  | 
O=C1c2ccccc2S(=O)(=O)N1CCCCCN1CCN(c2ncccn2)CC1 [molecule 9] | 0.58 | 79.78 | 48.71 | 74.93 | 81.12 | 2.91 | 34.40 |  | 
O=C1c2ccccc2S(=O)(=O)N1CCCCCN1CCN(c2ccccn2)CC1 [molecule 10] | 0.72 | 84.71 | 38.96 | 76.74 | 84.51 | 3.10 | 35.73 |  | 
O=C1c2ccccc2S(=O)(=O)N1CCCCCN1CCN(c2cccc3ccccc23)CC1 [molecule 11] | 1.67 | 98.90 | 63.51 | 104.83 | 111.43 | 4.55 | 47.26 |  | 
O=C1c2ccccc2S(=O)(=O)N1CCCCCCN1CCN(c2ccccc2)CC1 [molecule 12] | 1.00 | 91.87 | 55.26 | 93.84 | 100.78 | 3.98 | 41.59 |  | 
COc1ccccc1N1CCN(CCCCCCN2C(=O)c3ccccc3S2(=O)=O)CC1 [molecule 13] | 0.42 | 73.28 | 54.89 | 84.12 | 96.78 | 3.76 | 40.54 |  | 
COc1cccc(N2CCN(CCCCCCN3C(=O)c4ccccc4S3(=O)=O)CC2)c1 [molecule 14] | 0.93 | 90.46 | 55.41 | 94.73 | 99.75 | 3.92 | 41.42 |  | 
COc1ccc(N2CCN(CCCCCCN3C(=O)c4ccccc4S3(=O)=O)CC2)cc1 [molecule 15] | 0.65 | 82.67 | 55.04 | 87.50 | 96.78 | 3.76 | 40.04 |  | 
O=C1c2ccccc2S(=O)(=O)N1CCCCCCN1CCN(c2cccc(Cl)c2)CC1 [molecule 16] | 1.71 | 99.06 | 61.89 | 108.61 | 111.92 | 4.58 | 46.73 |  | 
O=C1c2ccccc2S(=O)(=O)N1CCCCCCN1CCN(c2ccc(Cl)cc2)CC1 [molecule 17] | 1.57 | 98.36 | 61.34 | 106.56 | 110.38 | 4.49 | 46.32 |  | 
O=C1c2ccccc2S(=O)(=O)N1CCCCCCN1CCN(c2ccc(Cl)c(Cl)c2)CC1 [molecule 18] | 2.27 |  | 65.39 | 119.04 | 118.39 | 4.93 | 50.19 | higher affinity to reference diclofenac | 
O=C1c2ccccc2S(=O)(=O)N1CCCCCCN1CCN(c2cccc(C(F)(F)F)c2)CC1 [molecule 19] | 1.85 | 99.61 | 63.86 | 113.75 | 114.05 | 4.69 | 46.84 |  | 
O=C1c2ccccc2S(=O)(=O)N1CCCCCCN1CCN(c2ccccc2F)CC1 [molecule 20] | 1.00 | 91.90 | 57.21 | 97.64 | 104.68 | 4.19 | 42.69 |  | 
O=C1c2ccccc2S(=O)(=O)N1CCCCCCN1CCN(c2cccc3ccccc23)CC1 [molecule 21] | 1.75 | 99.25 | 65.07 | 109.08 | 118.03 | 4.91 | 48.85 |  | 
O=C1c2ccccc2S(=O)(=O)N1CCCCCCN1CCN(c2ccccn2)CC1 [molecule 22] | 0.55 | 78.60 | 43.25 | 82.33 | 90.87 | 3.44 | 38.48 |  | 
O=C1c2ccccc2S(=O)(=O)N1CCCCCCN1CCN(c2ncccn2)CC1 [molecule 23] | −0.05 | 47.66 | 41.03 | 80.76 | 89.54 | 3.37 | 34.77 |  | relatively low-binding to HAS
O=C1c2ccccc2S(=O)(=O)N1CCCCCCN1CCN(c2nsc3ccccc23)CC1 [molecule 24] | 1.23 | 95.36 | 60.18 | 102.90 | 107.33 | 4.33 | 45.78 |  | 
